Measured values taken from US9073820B2, “Pharmaceutical compositions comprising napthamides” (OREGON HEALTH & SCIENCE UNIVERSITY, priority 2011, dated 2015).
Like-named read-outs stand apart in the source and are kept apart here.

Key:
[1] = tested on: MDA-MB-231 (human breast cancer cells); assay: MTT cell growth inhibition, 72 h, MDA-MB-231; format: cell-based; details: MDA-MB-231, 72 h, read-out: MDA-MB-231 (GI50)
Description: (§1) A549 (human lung cancer cells), MCF-7 (human breast cancer cells), MDA-MB-231 (human breast cancer cells) and MDA-MB-468 cells (human breast cancer cells) were maintained in Dulbecco's modified Eagle medium (DMEM, Invitrogen, Carlsbad, Calif.) supplemented with 10% (v/v) fetal calf serum (Sigma, St. Louis, Mo.), 10 μg/mL penicillin and 10 μg/mL streptomycin (Invitrogen, Carlsbad, Calif.) at 37° C. under 5% CO2. On the day of experiment, different concentrations of the drugs (final concentration 10^−8-10^−4 M) in duplicates were added to the cells and the cells were further incubated for 72 h. Then, the number of live cells was quantified by 3-(4,5-dimethyl-2-thiazolyl)-2,5-diphenyl-2H-tetrazolium bromide (MTT reagent, Sigma, St. Louis, Mo.).
(§2) The amount of reduced MTT formazan generated by live cells was determined by its absorbance at 570 nm after subtracting the background absorbance at 690 nm. The percent of cell growth was expressed as (A570(treated)−A570(initial))/(A570(vehicle treated)−A570(initial))*100, where A570(initial) represents initial cell population when drugs are added. The GI50 were derived from non-linear regression analysis of the dose-response curve using Prism 4.0 (GraphPad). […] Data were presented as mean±SD of at least two measurements in duplicates unless noted.

KIX-KID = biological target: T1, KIX-KID (Homo sapiens, UniProt Q92793); assay: KIX-KID inhibition, split Renilla luciferase complementation (RLucC-KIX and KID-RLucN); format: binding; details: 4° C., 24 h
T1 construct: made in house
T1 sequence (Q92793 587-666 limits assumed): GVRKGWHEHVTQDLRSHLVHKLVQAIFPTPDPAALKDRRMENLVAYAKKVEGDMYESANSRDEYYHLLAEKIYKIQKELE
Description: RLucC-KIX (15 ng) and KID-RLucN-containing cell lysates (0.5 mg) were mixed together in Renilla luciferase lysis buffer (Promega, Madison, Wis.) in the presence of different concentrations of compounds. The final volume of the incubation mixture is 30 μL. The mixture was incubated at 4° C. for 24 h. Then Renilla luciferase activity was measured by combining 5 μL of incubation mixture with 30 μL of coelenterazine solution in PBS (pH 7.4, 10 μg/mL).

[2] = tested on: MCF-7 (human breast cancer cells); assay: MTT cell growth inhibition, 72 h, MCF-7; format: cell-based; details: MCF7, 72 h, read-out: MCF-7 (GI50)
Description: as §1, §2

[3] = tested on: A549 (human lung cancer cells); assay: MTT cell growth inhibition, 72 h, A549; format: cell-based; details: A549, 72 h, read-out: A549 (GI50)
Description: as §1, §2

[4] = tested on: MDA-MB-468 cells (human breast cancer cells); assay: MTT cell growth inhibition, 72 h, MDA-MB-468; format: cell-based; details: MDA-MB-468, 72 h, read-out: MDA-MB-468 (GI50)
Description: as §1, §2

[5] = Pharmacokinetics of Compound 4 in mice (IV and PO); format: in vivo, BALB/c nude female mice
Description: The pharmacokinetics of Compound 4 was assessed in BALB/c nude female mice. Doses were 2 mg/kg administered intravenously (IV) and 20 mg/kg administered orally (PO). The intravenous formulation was administered in 1% N-Methyl-2-pyrrolidone (NMP) in water and was a clear solution. The per os solution was in 1.3% NMP+5% Tween-20® in a clear solution.

[6] = female, BALB/c nude, mouse, plasma, intravenous, 2 mg/kg, 2 mg/kg IV, G1, read-out: Plasma concentration G1
[7] = female, BALB/c nude, mouse, plasma, intravenous, 2 mg/kg, 2 mg/kg IV, G2, read-out: Plasma concentration G2
[8] = female, BALB/c nude, mouse, plasma, intravenous, 2 mg/kg, 2 mg/kg IV, G3, read-out: Plasma concentration G3
[9] = female, BALB/c nude, mouse, plasma, intravenous, 2 mg/kg, 2 mg/kg IV, mean, read-out: Plasma concentration Mean IV
[10] = female, BALB/c nude, mouse, plasma, oral, 20 mg/kg, 20 mg/kg PO, G4, read-out: Plasma concentration G4
[11] = female, BALB/c nude, mouse, plasma, oral, 20 mg/kg, 20 mg/kg PO, G5, read-out: Plasma concentration G5
[12] = female, BALB/c nude, mouse, plasma, oral, 20 mg/kg, 20 mg/kg PO, G6, read-out: Plasma concentration G6
[13] = female, BALB/c nude, mouse, plasma, oral, 20 mg/kg, 20 mg/kg PO, mean, read-out: Plasma concentration Mean PO
[14] = female, BALB/c nude, mouse, plasma, 2 mg/kg IV
[15] = female, BALB/c nude, mouse, plasma, 20 mg/kg PO

NCCCOc1cc2ccccc2cc1C(=O)NCCCOc1cc2ccccc2cc1C(=O)Nc1ccc(Cl)cc1O [Compound 4]
GI50 [1]: 230 ± 6 nM | IC50 (KIX-KID): 2540 ± 280 nM | GI50 [2]: 140 ± 29 nM | GI50 [3]: 300 nM | GI50 [4]: 210 ± 71 nM | CI ([5]; 2 mg/kg IV): 12.7 mL/min/kg | concentration at 0.083 hr [5, 6]: 1610 ng/mL | concentration at 0.083 hr [5, 7]: 1980 ng/mL | concentration at 0.083 hr [5, 8]: 1540 ng/mL | concentration at 0.083 hr [5, 9]: 1710 ng/mL | concentration at 0.25 hr [5, 6]: 1140 ng/mL | concentration at 0.25 hr [5, 7]: 1900 ng/mL | concentration at 0.25 hr [5, 8]: 1610 ng/mL | concentration at 0.25 hr [5, 9]: 1550 ng/mL | concentration at 0.5 hr [5, 6]: 1130 ng/mL | concentration at 0.5 hr [5, 7]: 966 ng/mL | concentration at 0.5 hr [5, 8]: 1170 ng/mL | concentration at 0.5 hr [5, 9]: 1090 ng/mL | concentration at 1 hr [5, 6]: 528 ng/mL | concentration at 1 hr [5, 7]: 378 ng/mL | concentration at 1 hr [5, 8]: 419 ng/mL | concentration at 1 hr [5, 9]: 442 ng/mL | concentration at 2 hr [5, 6]: 275 ng/mL | concentration at 2 hr [5, 7]: 178 ng/mL | concentration at 2 hr [5, 8]: 105 ng/mL | concentration at 2 hr [5, 9]: 186 ng/mL | concentration at 4 hr [5, 6]: 59.9 ng/mL | concentration at 4 hr [5, 7]: 71 ng/mL | concentration at 4 hr [5, 8]: 58.1 ng/mL | concentration at 4 hr [5, 9]: 63 ng/mL | concentration at 8 hr [5, 6]: 30.2 ng/mL | concentration at 8 hr [5, 7]: 58.7 ng/mL | concentration at 8 hr [5, 8]: 56.6 ng/mL | concentration at 8 hr [5, 9]: 48.5 ng/mL | concentration at 24 hr [5, 6]: 15.3 ng/mL | concentration at 24 hr [5, 7]: 16.4 ng/mL | concentration at 24 hr [5, 8]: 13.3 ng/mL | concentration at 24 hr [5, 9]: 15 ng/mL | concentration at 0.25 hr [5, 10]: 75.5 ng/mL | concentration at 0.25 hr [5, 11]: 92.7 ng/mL | concentration at 0.25 hr [5, 12]: 101 ng/mL | concentration at 0.25 hr [5, 13]: 89.7 ng/mL | concentration at 0.5 hr [5, 10]: 92 ng/mL | concentration at 0.5 hr [5, 11]: 82.4 ng/mL | concentration at 0.5 hr [5, 12]: 166 ng/mL | concentration at 0.5 hr [5, 13]: 114 ng/mL | concentration at 1 hr [5, 10]: 402 ng/mL | concentration at 1 hr [5, 11]: 465 ng/mL | concentration at 1 hr [5, 12]: 139 ng/mL | concentration at 1 hr [5, 13]: 335 ng/mL | concentration at 2 hr [5, 10]: 353 ng/mL | concentration at 2 hr [5, 11]: 75 ng/mL | concentration at 2 hr [5, 12]: 269 ng/mL | concentration at 2 hr [5, 13]: 232 ng/mL | concentration at 4 hr [5, 10]: 128 ng/mL | concentration at 4 hr [5, 11]: 65.9 ng/mL | concentration at 4 hr [5, 12]: 118 ng/mL | concentration at 4 hr [5, 13]: 104 ng/mL | concentration at 8 hr [5, 10]: 45.8 ng/mL | concentration at 8 hr [5, 11]: 30.1 ng/mL | concentration at 8 hr [5, 12]: 41.7 ng/mL | concentration at 8 hr [5, 13]: 39.2 ng/mL | concentration at 12 hr [5, 10]: 46 ng/mL | concentration at 12 hr [5, 11]: 47.6 ng/mL | concentration at 12 hr [5, 12]: 48.2 ng/mL | concentration at 12 hr [5, 13]: 47.3 ng/mL | concentration at 24 hr [5, 10]: 7.2 ng/mL | concentration at 24 hr [5, 11]: 12.9 ng/mL | concentration at 24 hr [5, 12]: 34.1 ng/mL | concentration at 24 hr [5, 13]: 18.1 ng/mL | AUC(0-inf) [5, 14]: 2630 ng·h/mL | AUC(0-t) [5, 14]: 2420 ng·h/mL | half-life [5, 14]: 9.6 h | Vd ([5]; female, BALB/c nude, mouse, plasma, 2 mg/kg IV, read-out: Vss): 4.8 L/kg | AUC(0-inf) [5, 15]: 1860 ng·h/mL | AUC(0-t) [5, 15]: 1620 ng·h/mL | Cmax [5, 15]: 335 ng/mL | Tmax [5, 15]: 1 h | half-life [5, 15]: 9.1 h | bioavailability ([5]; female, BALB/c nude, mouse, plasma, 20 mg/kg PO vs 2 mg/kg IV): 7.1%
